Columns and labels:
rabbit serum PON3 = target: T1, rabbit serum PON3 (Oryctolagus cuniculus, UniProt Q9BGN0); test: Hydrolytic activity of purified rabbit serum PON3 with paraoxon, aromatic esters and lactones; format: biochemical; conditions: for PON3 hydrolytic activity with substrate (in words) / PON3 (rate of hydrolysis of substrate): purified rabbit serum PON3; for PON3 (rate of hydrolysis of substrate): 25° C.; for PON1/PON3 Ratio: ratio of hydrolysis rates of PON1 and PON3
T1 construct: from tissue; host or cells: rabbit serum
Protocol: (§1) Esterase activities with substrates: phenyl acetate, S-phenyl thioacetate, α-naphtyl acetate and paraoxon were measured as described by Kuo and La Du (Kuo and La Du, Drug Metab. Dispos., 23:335 [1995]; Qan et al., Drug Metab Dispos, 19:100-106 [1991]. For example, arylesterase activity is measured using a molar difference extinction coefficient (difference in extinction coefficients of phenol vs. phenol acetate) of 1,310 M^−1 cm^−1, at 270 nm with 1.0 mM phenyl acetate in 50 mM Tris/HCl (pH 8.0):1.0 mM CaCl2 buffer (Gan et al., supra). For the hydrolysis of thiophenyl acetate, the substrate is dissolved in methanol, and the reaction cuvettes contain 1.0 mM substrate in 50 mM Tris/HCl (pH 8.0):1.0 mM CaCl2 buffer. The product, thiophenol, reacts with 5,5′-dithiobis(2-nitrobenzoic acid), and activity is calculated from a molar difference extinction coefficient of 13,600 M^−1 cm^−1 at 412 nm (Augustinsson and Axenfors, Anal. Biochem., 48:428 [1972]). For the hydrolysis of α-naphtyl acetate, substrates are dissolved in ethylene glycol monomethyl ether, and the reaction cuvettes contain 0.5 mM substrate in 50 mM Tris/HCl (pH 8.0):1.0 mM CaCl2 buffer. Enzymatic activities are calculated from the molar extinction coefficients of 23,170 M^−1 cm^−1 at 235 nm. PON activity is measured with 1.0 mM paraoxon in 50 mM glycine:NaOH buffer (pH 10.5):1.0 mM CaCl2 with or without 1.0 M NaCl. Enzymatic activities were calculated from a molar extinction coefficient of 18,290 M^−1 cm^−1 at 412 nm (Gan et al., supra). All enzymatic assays are performed at 25° C. For each assay, 5 μl of purified PON (1.5-2.5 μg of enzyme protein) is added to an assay cuvette. For all substrates, one unit of enzymatic activity is defined as 1 μmol of substrate hydrolyzed/min.
(§2) Hydrolysis of aromatic lactones was monitored by the increase in UV absorbance at 270 nm (dihydrocoumarin), 274 nm (2-coumaranone), and 290 nm (homogentisic acid lactone). Lactones were purchased from Sigma. In a typical experiment a cuvette contained 1 mM substrate (from a […] stock solution, dissolved in methanol) in 50 mM Tris/HCl (pH 8.0), 1 mM CaCl2 and 5-20 μl enzyme source in a total volume of 1 ml. The molar difference extinction coefficients (difference in extinction coefficients of substrate and product) used to calculate the rate of hydrolysis were 1295, 876, and 816 M^−1 cm^−1 for dihydrocoumarin, 2-coumaranone and homogentisic acid lactone, respectively.
(§3) The hydrolysis of other lactones was followed by a calorimetric assay with phenol red (Billecke, et al., Chem Biol Interact, 119-120:251-256, [1999]). The reaction cuvette contained 1 mM substrate (from a 100 mM stock solution, dissolved in methanol) in 2 mM HEPES at starting pH 8.0, 1 mM CaCl2, 0.004% (106 μM) phenol red, 0.005% bovine albumin, and 5-20 μl enzyme solution in a total volume of 1 ml. The rate of acid production was followed by monitoring the increase in absorbance at 422 nm as the color changed from red to yellow. The rate of hydrolysis was derived from a calibration curve obtained using known amounts of HCl.
(§4) All the above assays (Sections, A, B, and C) were performed at 25° C. using a dual beam Cary 3E […] Spectrophotometer (Varian). Reference cuvettes containing the appropriate buffer plus substrate were used in each assay to correct for any spontaneous hydrolysis.

rabbit serum PON1 = target: T2, rabbit serum PON1 (Oryctolagus cuniculus, UniProt P27170); test: Hydrolytic activity of purified rabbit serum PON1 with paraoxon, aromatic esters and lactones; format: biochemical; conditions: 25° C.
T2 construct: PON 1 was purified further by pooling the fractions with highest arylesterase activity from a second DEAE column; from tissue; host or cells: rabbit serum
Protocol: as §1, §2, §3, §4

PON3 = target: T3, PON3 (Oryctolagus cuniculus, UniProt Q9BGN0); test: Hydrolysis of statin lactones by PON3; format: biochemical, rabbit
T3 construct: from tissue; host or cells: rabbit serum
Protocol: The hydrolysis of the statin lactones (mevastatin, lovastatin and simvastatin) was analyzed by high performance liquid chromatography (HPLC) using a Beckman System Gold HPLC with a Model 126 Programmable Solvent Module, a Model 168 Diode Array Detector set at 238 nm, a Model 7125 Rheodyne manual injector valve with a 20 μl loop, and a Beckman ODS Ultrasphere column (C 18, 250×4.6 mm, 5 μm). Lovastatin (Mevacor) and simvastatin were purchased as 20 mg tablets from Merck, from which the lactones were extracted with chloroform, evaporated to dryness and redissolved in methanol. Mevastatin was purchased from Sigma.
In a final volume of 1 ml, 10-200 μl of enzyme solution and 10 μl of substrate solution in methanol (0.5 mg/ml) were incubated at 25° C. in 50 mM Tris/HCl (pH 7.6), 1 mM CaCl2. […]
Samples were eluted isocratically at a flow rate of 1.0 ml/min with a mobile phase consisting of the following: A=acetic acid/acetonitrile/water (2:249:249, v/v/v) and B=acetonitrile, in A/B ratios of 50/50, 45/55 and 40/60 for mevastatin, lovastatin and simvastatin, respectively. […] Response factors for the acid products were calculated from the peak heights after complete alkaline hydrolysis of the lactones in 0.02 M NAOH for 2-24 hours at 25° C.

T2 sequence (P27170 whole entry Y185T): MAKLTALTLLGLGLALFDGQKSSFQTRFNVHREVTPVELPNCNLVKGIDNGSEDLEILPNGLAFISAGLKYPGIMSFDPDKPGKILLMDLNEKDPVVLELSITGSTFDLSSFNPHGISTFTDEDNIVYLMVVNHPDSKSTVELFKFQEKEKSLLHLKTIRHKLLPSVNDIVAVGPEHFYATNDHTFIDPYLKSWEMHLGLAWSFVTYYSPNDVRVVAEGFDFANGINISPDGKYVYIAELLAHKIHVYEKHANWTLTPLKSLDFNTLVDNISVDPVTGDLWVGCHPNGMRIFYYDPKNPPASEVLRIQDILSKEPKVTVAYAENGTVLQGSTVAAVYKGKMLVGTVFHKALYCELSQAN
T1 sequence (Q9BGN0 2-354 limits assumed): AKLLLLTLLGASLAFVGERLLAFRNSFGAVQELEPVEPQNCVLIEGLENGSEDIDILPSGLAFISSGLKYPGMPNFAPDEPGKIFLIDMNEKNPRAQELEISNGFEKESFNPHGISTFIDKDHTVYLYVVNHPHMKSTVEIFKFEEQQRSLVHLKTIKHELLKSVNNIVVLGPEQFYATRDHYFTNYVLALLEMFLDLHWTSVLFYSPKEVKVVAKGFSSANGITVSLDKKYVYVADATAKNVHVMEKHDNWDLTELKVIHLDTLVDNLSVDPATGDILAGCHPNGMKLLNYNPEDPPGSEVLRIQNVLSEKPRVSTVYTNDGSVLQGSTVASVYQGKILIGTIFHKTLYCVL
T3 sequence (Q9BGN0 2-354 limits assumed): as above

Molecule	PON3 hydrolytic activity with substrate (in words) (rabbit serum PON3)	PON3 (rate of hydrolysis of substrate) (rabbit serum PON3)	PON1/PON3 Ratio (rabbit serum PON3)	PON1 (rate of hydrolysis of substrate) (rabbit serum PON1)	hydrolysis of lactone drug by PON3 (in words) (PON3)
CCOP(=O)(OCC)Oc1ccc([N+](=O)[O-])cc1 [Paraoxon]	very poor substrates	<0.0075^1 μmol/min/mg	638	4.76 µmol/min/mg	
C=C1CCC(=O)O1 [γ-methylene-γ-butyrolactone]		12 µmol/min/mg	52	622 µmol/min/mg	
CCCC1CCC(=O)O1 (stereo not drawn) [γ-Heptalactone]		8.6 µmol/min/mg	12	107 µmol/min/mg	
CCCCC1CCC(=O)O1 (stereo not drawn) [γ-Octalactone]		29 µmol/min/mg	3.6	104.5 µmol/min/mg	
CC1CCC(=O)O1 (stereo not drawn) [γ-Valerolactone]		3.0 µmol/min/mg	26	78.4 µmol/min/mg	
O=C1Cc2ccccc2O1 [2-Coumaronone]		32.4 µmol/min/mg	4.0	136.6 µmol/min/mg	
CCCCCC1CCCC(=O)O1 (stereo not drawn) [δ-Decalactone]		73 µmol/min/mg	1.8	134.8 µmol/min/mg	
CCCCC1OC(=O)CC1C (stereo not drawn) [β-methyl-γ-octalactone]		3 µmol/min/mg	12	34.8 µmol/min/mg	
δ-Undecalactone		90 µmol/min/mg	2.1	186.8 µmol/min/mg	
CC1=CCC(=O)O1 [α-Angelica lactone]		3.4 µmol/min/mg	52	175.1 µmol/min/mg	
CC1CCCC(=O)O1 (stereo not drawn) [δ-Hexalactone]		3.6 µmol/min/mg	58	207 µmol/min/mg	
CC[C@H](C)C(=O)O[C@H]1C[C@@H](C)C=C2C=C[C@H](C)[C@H](CC[C@@H]3C[C@@H](O)CC(=O)O3)[C@H]21 [lovastatin]					can also hydrolyse
CCCCCC1CCC(=O)O1 (stereo not drawn) [γ-Nonalactone]		60 µmol/min/mg	1.3	79.6 µmol/min/mg	
CCCCCCCC1CCC(=O)O1 (stereo not drawn) [γ-Undecalactone]		44.2 µmol/min/mg	2	87.4 µmol/min/mg	
CCCCCCCC1CCCC(=O)O1 (stereo not drawn) [δ-Dodecalactone]		98.2 µmol/min/mg	1.8	179.4 µmol/min/mg	
CCCCC1CCCC(=O)O1 (stereo not drawn) [δ-Nonalactone]		44 µmol/min/mg	3.4	142 µmol/min/mg	
O=C1Oc2ccccc2C1Br (stereo not drawn) [α-Br-2-Coumaronone]		2.8 µmol/min/mg	97	270.1 µmol/min/mg	
O=C1CCC(c2ccccc2)O1 (stereo not drawn) [γ-phenyl-γ-butyrolactone]		20.4 µmol/min/mg	10	203 µmol/min/mg	
CCCCCCC1CCC(=O)O1 (stereo not drawn) [γ-Decalactone]		50.2 µmol/min/mg	1.8	92 µmol/min/mg	
CC(=O)Oc1ccc2ccccc2c1 [β-Naphtyl Acetate]		4.6 µmol/min/mg	30	138.8 µmol/min/mg	
CC(=O)Oc1ccccc1 [Phenyl Acetate]	very poor substrates	1.0 µmol/min/mg	769	768.7 µmol/min/mg	

Source: patent US6916472B2, “PON3 and uses thereof” (Regents of the University of Michigan, priority 2000, dated 2005)
